Where “and” joins values, the source holds several entries; their conditions need not be identical. Equal entries are not always repeated. Numbers after ± are expanded uncertainties.
Assays:
[1] = Crystal; DTA
[2] = Molar enthalpy of transition or fusion; settings: Crystal; DSC

## CC(C(=O)O)c1cccc(C(=O)c2ccccc2)c1 (centres undefined) [ketoprofen]
[1]
  Normal melting temperature: 94.20 ± 0.5 °C and 93.50 ± 0.5 °C
[2]
  Molar enthalpy of transition or fusion: 7.29 ± 0.287 kcal/mol

## NC(=O)c1cccnc1 [3-pyridinecarboxamide]
[1]
  Normal melting temperature: 128.00 ± 0.5 °C and 127.50 ± 0.5 °C
[2]
  Molar enthalpy of transition or fusion: 5.88 ± 0.263 kcal/mol

From the NIST ThermoML archive (doi:10.1016/j.tca.2017.02.014)
